Experimental data published in patent US10973772B2, “Targeted delivery of hydrophilic drugs” (Double Bond Pharmaceuticals AB, priority 2014, dated 2021).
Structures can show the parent of a compound that is named as a salt. Where two headings read alike, the source gives them in different places.

Key:
[1] = female, Wistar, rat, in vivo, 5 mg/kg, 2 h
[2] = Californian, rabbit, in vivo, 5 mg/kg, 0.5 h
[3] = In vivo distribution of doxorubicin in the liver of Wistar rats; conditions: female, rat, intravenous, 5 mg/kg
[4] = In vivo distribution of doxorubicin in Californian rabbit liver; conditions: intravenous, 5 mg/kg
[5] = Solubility in aqueous ethanol (UV method); format: physicochemical
Method: Solubility in aqueous ethanol was determined by centrifuging an adequate amount of freshly obtained colloid at 3000 rpm for 30-90 min, decanting the supernatant, adding 10 mL water and shaking the mixture, then repeating centrifugation, shaking and washing 3 times. The centrifugate from the final centrifugation was air dried for 72 h at room temperature followed by drying in vacuo for 24 h. A portion of the dried centrifugate (20 mg) was resuspended in 6 mL aqueous ethanol by stirring at room temperature for 24 h. The mixture was centrifuged at 3000 rpm for 10 min and the supernatant filtered through a 0.2 micrometer filter to remove aggregates of undissolved solid product. The solubility of the compound was determined by a UV method.

[6] = rabbit ear vein; 1.25 mg doxorubicin/kg vs 5.0 mg doxorubicin/kg doxorubicin hydrochloride
Method: FIG. 9 are graphs illustrating doxorubicin concentration in the liver and the heart upon intravenous injection of 5 mg/kg aqueous doxorubicin hydrochloride and of 1.25 mg/kg of the composition of the invention according to Example 1.
The doxorubicin composition of the invention according to Example 1 (R═C16 sulfonate) was administered to Californian rabbits by injection into the ear vein at a concentration of 1.25 mg doxorubicin/kg body weight. For comparison aqueous doxorubicin hydrochloride was administered in the same manner at a concentration of 5.0 mg doxorubicin/kg body weight.

Row | Increase of doxorubicin concentration in liver tissue [1] | Increase of doxorubicin concentration in liver tissue [2] | concentration at 2 h [3] | concentration at 0.5 h [4] | Solubility ([5]; colloid doxorubicin alkyl sulfates and alkane sulfonates in 30% ethanol (v/v)) | Solubility in 30% ethanol ([5]; doxorubicin salts, 30% ethanol (Table 5)) | Delivery of doxorubicin to the heart versus aqueous doxorubicin hydrochloride [6] | Efficiency of delivery of doxorubicin to the liver versus aqueous doxorubicin hydrochloride [6] | SMILES
1 | (1) times | (1) times | 11.5 ± 2.98 ng/g | 0.392 ± 0.128 ng/g | – | – | – | – | COc1cccc2c1C(=O)c1c(O)c3c(c(O)c1C2=O)C[C@@](O)(C(=O)CO)C[C@@H]3O[C@H]1C[C@H](N)[C@H](O)[C@H](C)O1 [Cl^−, doxorubicin hydrochloride]
2 | – | – | – | – | 11.94 µg/mL | 11.94 µg/mL | no difference | about four | CCCCCCCCCCCCCCCCS(=O)(=O)O.COc1cccc2c1C(=O)c1c(O)c3c(c(O)c1C2=O)C[C@@](O)(C(=O)CO)C[C@@H]3O[C@H]1C[C@H](N)[C@H](O)[C@H](C)O1 [doxorubicin alkane sulfonate n=16]
